Laboratory results taken from patent US9302999B2, “Substituted triazoles as herbicides” (E. I. DU PONT DE NEMOURS AND COMPANY, priority 2012, dated 2016).
Where two headings read alike, the source gives them in different places.

Key:
Assay type in all cases: in vivo
[1] = test system: crabgrass, large (large crabgrass, Digitaria sanguinalis); experiment: Test A pre-/postemergence: crabgrass, large; conditions: for pest or weed control at 125 g/ha / pest or weed control at 500 g/ha: Digitaria sanguinalis, 240 h
How it was run: (§1)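 Each species received preemergence soil-directed spraying and, at the same time, postemergence treatment of seedlings 2–10 cm tall. Formulation: non-phytotoxic solvent mixture including surfactant. Response assessed visually about ten days on, relative to untreated controls, 0–100 scale.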

corn (Zea mays) = experiment: Test A pre-/postemergence: corn
How it was run: as §1

[2] = test system: large crabgrass (Digitaria sanguinalis); experiment: Test C pre-/postemergence: large crabgrass
How it was run: (§2)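 Preemergence on seeds in loam/sand, postemergence on 2–18 cm (1–4-leaf) plants in peat-based medium; compounds in non-phytotoxic solvent with surfactant. After 13–15 days in greenhouse, visual rating versus controls, 0 (no effect) to 100 (complete control).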

[3] = test system: lambsquarters (Chenopodium album); experiment: Test C pre-/postemergence: lambsquarters
How it was run: as §2

[4] = test system: barnyardgrass (Echinochloa crus-galli); experiment: Test A pre-/postemergence: barnyardgrass; conditions: for pest or weed control at 125 g/ha / pest or weed control at 500 g/ha: Echinochloa crus-galli, 240 h
How it was run: as §1

wild oat (Avena fatua) = experiment: Test C pre-/postemergence: wild oat
How it was run: as §2

[5] = test system: ryegrass, Italian (Italian ryegrass, Lolium multiflorum); experiment: Test C pre-/postemergence: ryegrass, Italian
How it was run: as §2

[6] = test system: nutsedge, yellow (yellow nutsedge, Cyperus esculentus); experiment: Test C pre-/postemergence: nutsedge, yellow
How it was run: as §2

[7] = test system: blackgrass (Alopecurus myosuroides); experiment: Test C pre-/postemergence: blackgrass
How it was run: as §2

[8] = test system: galium (catchweed bedstraw, Galium aparine); experiment: Test C pre-/postemergence: galium
How it was run: as §2

[9] = test system: pigweed (Amaranthus retroflexus); experiment: Test C pre-/postemergence: pigweed
How it was run: as §2

[10] = test system: johnsongrass (Sorghum halepense); experiment: Test C pre-/postemergence: johnsongrass
How it was run: as §2

[11] = Postemergence, 31 g ai/ha, scale 0 to 100 (0 no effect, 100 complete control)
[12] = Postemergence, 62 g ai/ha, scale 0 to 100 (0 no effect, 100 complete control)
[13] = Postemergence, 125 g ai/ha, scale 0 to 100, 0 no effect, 100 complete control
[14] = Postemergence, 250 g ai/ha, scale 0 to 100
[15] = Preemergence, 31 g ai/ha, scale of 0 to 100, 0 is no effect, 100 is complete control
[16] = Preemergence, 62 g ai/ha, scale of 0 to 100, 0 is no effect, 100 is complete control
[17] = Preemergence, 125 g ai/ha, scale 0 to 100, 0 no effect, 100 complete control
[18] = Preemergence, 250 g ai/ha, scale 0 to 100, 0 no effect, 100 complete control
[19] = Postemergence, 125 g ai/ha, 0 to 100 scale, 0 is no effect, 100 is complete control
[20] = Postemergence, 500 g ai/ha, visual rating on 0 to 100 scale (0 no effect, 100 complete control), approximately ten days
[21] = Preemergence, 125 g ai/ha, 0 to 100 scale where 0 is no effect and 100 is complete control
[22] = Preemergence, 500 g ai/ha, 0 to 100 scale (0 no effect, 100 complete control)

## Cc1nn(-c2ccc(C(F)(F)F)cc2)nc1Cc1ccnc(C(F)(F)F)c1 [Compound 47, 4-[[5-methyl-2-[4-(trifluoromethyl)phenyl]-2H-1,2,3-triazol-4-yl]methyl]-2-(trifluoromethyl)pyridine]
[1]; post-emergence, Postemergence, 125 g ai/ha, 0 to 100 scale, 0 is no effect, 100 is complete control, read-out: Crabgrass, Large plant response rating
  pest or weed control at 125 g/ha: 80%
[1]; post-emergence, Postemergence, 500 g ai/ha, visual rating on 0 to 100 scale (0 no effect, 100 complete control), approximately ten days, read-out: Crabgrass, Large plant response rating
  pest or weed control at 500 g/ha: 90%
[1]; pre-emergence, Preemergence, 125 g ai/ha, 0 to 100 scale (0 no effect, 100 complete control), read-out: Plant response rating, Crabgrass, Large
  pest or weed control at 125 g/ha: 100%
[1]; pre-emergence, Preemergence, 500 g ai/ha, 0 to 100 scale, 0 is no effect, 100 is complete control, read-out: Plant response rating, Crabgrass, Large
  pest or weed control at 500 g/ha: 100%
Corn (Zea mays); Zea mays, post-emergence, 240 h, Postemergence, 125 g ai/ha, 0 to 100 scale, 0 is no effect, 100 is complete control, read-out: Corn plant response rating
  plant injury at 125 g/ha: 20%
Corn (Zea mays); Zea mays, post-emergence, 240 h, Postemergence, 500 g ai/ha, visual rating on 0 to 100 scale (0 no effect, 100 complete control), approximately ten days, read-out: Corn plant response rating
  plant injury at 500 g/ha: 40%
Corn (Zea mays); Zea mays, pre-emergence, 240 h, Preemergence, 125 g ai/ha, 0 to 100 scale (0 no effect, 100 complete control)
  Corn plant response rating (crop injury, 0 = no effect, 100 = complete kill) at 125 g/ha: 20%
Corn (Zea mays); Zea mays, pre-emergence, 240 h, Preemergence, 500 g ai/ha, 0 to 100 scale, 0 is no effect, 100 is complete control
  Corn plant response rating (crop injury, 0 = no effect, 100 = complete kill) at 500 g/ha: 30%
[2]; [11]
  Plant response rating, Crabgrass, Large: 5
[2]; [12]
  Plant response rating, Crabgrass, Large: 15
[2]; [13]
  Plant response rating, Crabgrass, Large: 35
[2]; [14]
  Plant response rating, Crabgrass, Large: 50
[2]; [15]
  Plant response rating, Crabgrass, Large: 45
[2]; [16]
  Plant response rating, Crabgrass, Large: 98
[2]; [17]
  Plant response rating, Crabgrass, Large: 100
[2]; [18]
  Plant response rating, Crabgrass, Large: 100
[3]; [11]
  Plant response rating, Lambsquarters: 100
[3]; [15]
  Plant response rating, Lambsquarters: 100
[3]; [16]
  Plant response rating, Lambsquarters: 100
[3]; [17]
  Plant response rating, Lambsquarters: 100
[3]; [18]
  Plant response rating, Lambsquarters: 100
[4]; post-emergence, Postemergence, 125 g ai/ha, 0 to 100 scale, 0 is no effect, 100 is complete control, read-out: Barnyardgrass plant response rating
  pest or weed control at 125 g/ha: 90%
[4]; post-emergence, Postemergence, 500 g ai/ha, visual rating on 0 to 100 scale (0 no effect, 100 complete control), approximately ten days, read-out: Barnyardgrass plant response rating
  pest or weed control at 500 g/ha: 90%
[4]; pre-emergence, Preemergence, 125 g ai/ha, 0 to 100 scale (0 no effect, 100 complete control), read-out: Plant response rating, Barnyardgrass
  pest or weed control at 125 g/ha: 90%
[4]; pre-emergence, Preemergence, 500 g ai/ha, 0 to 100 scale, 0 is no effect, 100 is complete control, read-out: Plant response rating, Barnyardgrass
  pest or weed control at 500 g/ha: 100%
Wild oat (Avena fatua); [11]
  Plant response rating, Oat, Wild: 35
Wild oat (Avena fatua); [13]
  Plant response rating, Oat, Wild: 85
Wild oat (Avena fatua); [14]
  Plant response rating, Oat, Wild: 90
Wild oat (Avena fatua); [15]
  Plant response rating, Oat, Wild: 80
Wild oat (Avena fatua); [16]
  Plant response rating, Oat, Wild: 90
Wild oat (Avena fatua); [17]
  Plant response rating, Oat, Wild: 90
Wild oat (Avena fatua); [18]
  Plant response rating, Oat, Wild: 100
[5]; [11]
  Plant response rating, Ryegrass, Italian: 35
[5]; [12]
  Plant response rating, Ryegrass, Italian: 65
[5]; [13]
  Plant response rating, Ryegrass, Italian: 75
[5]; [14]
  Plant response rating, Ryegrass, Italian: 85
[5]; [15]
  Plant response rating, Ryegrass, Italian: 35
[5]; [16]
  Plant response rating, Ryegrass, Italian: 50
[5]; [17]
  Plant response rating, Ryegrass, Italian: 90
[5]; [18]
  Plant response rating, Ryegrass, Italian: 98
[6]; [11]
  Plant response rating, Nutsedge, Yellow: 0
[6]; [12]
  Plant response rating, Nutsedge, Yellow: 0
[6]; [13]
  Plant response rating, Nutsedge, Yellow: 0
[6]; [14]
  Plant response rating, Nutsedge, Yellow: 0
[6]; [15]
  Plant response rating, Nutsedge, Yellow: 0
[6]; [16]
  Plant response rating, Nutsedge, Yellow: 0
[6]; [17]
  Plant response rating, Nutsedge, Yellow: 0
[6]; [18]
  Plant response rating, Nutsedge, Yellow: 0
[7]; [11]
  Plant response rating, Blackgrass: 40
[7]; [12]
  Plant response rating, Blackgrass: 45
[7]; [13]
  Plant response rating, Blackgrass: 60
[7]; [14]
  Plant response rating, Blackgrass: 90
[7]; [15]
  Plant response rating, Blackgrass: 90
[7]; Preemergence, 62 g ai/ha, scale 0 to 100, 0 no effect, 100 complete control
  Plant response rating, Blackgrass: 98
[7]; [17]
  Plant response rating, Blackgrass: 100
[7]; [18]
  Plant response rating, Blackgrass: 100
[8]; [11]
  Plant response rating, Galium: 80
[8]; [12]
  Plant response rating, Galium: 80
[8]; [13]
  Plant response rating, Galium: 95
[8]; [14]
  Plant response rating, Galium: 98
[8]; [15]
  Plant response rating, Galium: 85
[8]; [16]
  Plant response rating, Galium: 100
[8]; [17]
  Plant response rating, Galium: 100
[8]; [18]
  Plant response rating, Galium: 100
[9]; [11]
  Plant response rating, Pigweed: 100
[9]; [12]
  Plant response rating, Pigweed: 100
[9]; [13]
  Plant response rating, Pigweed: 100
[9]; [14]
  Plant response rating, Pigweed: 100
[9]; [15]
  Plant response rating, Pigweed: 100
[9]; [16]
  Plant response rating, Pigweed: 100
[9]; [17]
  Plant response rating, Pigweed: 100
[9]; [18]
  Plant response rating, Pigweed: 100
[10]; [11]
  Plant response rating, Johnsongrass: 0
[10]; [12]
  Plant response rating, Johnsongrass: 10
[10]; [13]
  Plant response rating, Johnsongrass: 35
[10]; [14]
  Plant response rating, Johnsongrass: 50
[10]; [15]
  Plant response rating, Johnsongrass: 5
[10]; [16]
  Plant response rating, Johnsongrass: 10
[10]; [17]
  Plant response rating, Johnsongrass: 60
[10]; [18]
  Plant response rating, Johnsongrass: 95

## Cc1nn(-c2ccnc(C(F)(F)F)c2)nc1Cc1ccnc(C(F)(F)F)c1 [Compound 137]
[1]; [19]
  Crabgrass, Large plant response rating: 90
[1]; [20]
  Crabgrass, Large plant response rating: 90
[1]; [21]
  Plant response rating, Crabgrass, Large: 90
[1]; [22]
  Plant response rating, Crabgrass, Large: 90
Corn (Zea mays); [19]
  Corn plant response rating: 20
Corn (Zea mays); [20]
  Corn plant response rating: 30
Corn (Zea mays); [21]
  Plant response rating, Corn: 0
Corn (Zea mays); [22]
  Plant response rating, Corn: 0
[2]; [11]
  Plant response rating, Crabgrass, Large: 15
[2]; [12]
  Plant response rating, Crabgrass, Large: 40
[2]; [13]
  Plant response rating, Crabgrass, Large: 40
[2]; [14]
  Plant response rating, Crabgrass, Large: 65
[3]; [11]
  Plant response rating, Lambsquarters: 100
[3]; [12]
  Plant response rating, Lambsquarters: 100
[3]; [13]
  Plant response rating, Lambsquarters: 100
[3]; [14]
  Plant response rating, Lambsquarters: 100
[4]; [19]
  Barnyardgrass plant response rating: 70
[4]; [20]
  Barnyardgrass plant response rating: 90
[4]; [21]
  Plant response rating, Barnyardgrass: 50
[4]; [22]
  Plant response rating, Barnyardgrass: 70
Wild oat (Avena fatua); [11]
  Plant response rating, Oat, Wild: 45
Wild oat (Avena fatua); [12]
  Plant response rating, Oat, Wild: 50
Wild oat (Avena fatua); [13]
  Plant response rating, Oat, Wild: 50
Wild oat (Avena fatua); [14]
  Plant response rating, Oat, Wild: 70
[5]; [11]
  Plant response rating, Ryegrass, Italian: 35
[5]; [12]
  Plant response rating, Ryegrass, Italian: 55
[5]; [13]
  Plant response rating, Ryegrass, Italian: 65
[5]; [14]
  Plant response rating, Ryegrass, Italian: 90
[6]; [11]
  Plant response rating, Nutsedge, Yellow: 5
[6]; [12]
  Plant response rating, Nutsedge, Yellow: 10
[6]; [13]
  Plant response rating, Nutsedge, Yellow: 10
[6]; [14]
  Plant response rating, Nutsedge, Yellow: 15
[7]; [11]
  Plant response rating, Blackgrass: 10
[7]; [12]
  Plant response rating, Blackgrass: 30
[7]; [13]
  Plant response rating, Blackgrass: 35
[7]; [14]
  Plant response rating, Blackgrass: 60
[8]; [11]
  Plant response rating, Galium: 45
[8]; [12]
  Plant response rating, Galium: 70
[8]; [13]
  Plant response rating, Galium: 70
[8]; [14]
  Plant response rating, Galium: 70
[9]; [11]
  Plant response rating, Pigweed: 98
[9]; [12]
  Plant response rating, Pigweed: 100
[9]; [13]
  Plant response rating, Pigweed: 100
[9]; [14]
  Plant response rating, Pigweed: 100
[10]; [11]
  Plant response rating, Johnsongrass: 5
[10]; [12]
  Plant response rating, Johnsongrass: 40
[10]; [13]
  Plant response rating, Johnsongrass: 80
[10]; [14]
  Plant response rating, Johnsongrass: 90
